Tested on: skin isolated from a hairless mouse
Assay: Skin permeability test (patch on isolated hairless mouse skin, permeation cell, PBS(-) receptor, HPLC)
Type: in vitro ADME
Conditions: statement in words, Tables 3 and 4
Description: To examine transdermal absorbability of the drug, the obtained patch preparation was subjected to a skin permeability test.
A patch preparation was cut into a circle having a diameter of 6 mmφ, adhered to the stratum corneum side of a skin isolated from a hairless mouse, mounted on a cell for skin permeation experiment (effective area 9 mmφ) such that the dermic layer side was a receptor phase, and a skin permeation experiment was conducted. As a receptor solution, a deaerated PBS(−) solution (phosphate buffered saline) was used.

CCOC(=O)C1=C(COCCN)NC(C)=C(C(=O)OC)C1c1ccccc1Cl (stereo not shown) [amlodipine besilate]
skin permeability of the drug: low skin permeability
